“And” between values parts separate entries of the source, which are not always exact repeats. Equal entries are not always repeated. Where two headings read alike, the source gives them in different places.
Test: Dasatinib single oral gavage plasma pharmacokinetics (NLME modeling)
Type: in vivo, mouse
Parameters: DV (dasatinib plasma concentration): unit: ng/mL
Details: for CL/F: both sexes, po, read-out: Cl_pop (apparent oral clearance) (converted); for CL/F / concentration at 0.5 h / concentration at 1 h / concentration at 2 h / concentration at 8 h / concentration at 16 h / concentration at […] / concentration at 4 h / concentration at 24 h: C57BL/6, mouse, plasma, 10 mg/kg; for concentration at 0.5 h / concentration at 1 h / concentration at 2 h / concentration at 8 h / concentration at 16 h / concentration at […] / concentration at 4 h / concentration at 24 h: oral, read-out: DV (dasatinib plasma concentration)
Method: Dasatinib was dissolved in 80 mMol/L sodium citrate buffer pH 3.1 for a total dasatinib concentration of 1 mg/mL and a 10 mL/kg gavage volume. Mice were grouped by VD3 status and sex and studied at 8 and 10 weeks of age. […] Saphenous and submandibular bleeds of mice using a single-use Sarstedt Minivette POCT 50 μL K3 EDTA capillary device are humane methods for obtaining small volumes of blood over multiple time points, preferrable to retroorbital bleeds, and were approved for this study that required blood sampling at multiple time points (three) after dasatinib administration. Each mouse was sampled three times on two separate dasatinib dosing occasions. Blood was collected into the Minivette capillary device, dispensed into a microtube and vortexed to mix the anticoagulant. The tubes were then immediately centrifuged to plasma and stored on dry ice for the remainder of the study. At the end of the in vivo procedures, plasma samples were transferred from dry ice and placed at -80°C until analysis.
Total plasma dasatinib concentrations were assessed using a sensitive and specific liquid chromatography, tandem mass spectrometry (LC-MS/MS) assay. Dasatinib stock solutions were prepared in acetonitrile and used to spike matrix calibrators and quality controls. Protein precipitation was performed using a 1:4 ratio of plasma to 15 ng/mL erlotinib HCl (St. Jude Compound Management, S00004053, Inventory ID: SJCH0042996, Purity > 95%) in methanol as an internal standard. A 3μL aliquot of the extracted supernatant was injected onto a Shimadzu LC-20ADXR high performance liquid chromatography system via a LEAP CTC PAL autosampler. The LC separation was performed using a Phenomenex Kinetex 2.6 um EVO C18 (100A, 50 x 2.1 mm) maintained at 50°C with gradient elution at a flow rate of 0.5 mL/min. The binary mobile phase gradient began with a linear increase to 100% B in 4.0 minutes. The column was then rinsed for 2.0 minutes at 100% B and then equilibrated at the initial conditions for two minutes for a total run time of eight minutes.
Analyte and IS were detected with tandem mass spectrometry using a SCIEX API 5500 Q-TRAP in the positive ESI mode with monitoring of the following mass transitions: Dasatinib 488.20 -> 401.00, erlotinib HCl 394.20 -> 250.10.
The experimental bioanalytical runs were all found to be acceptable for the purpose of a singlicate non-GLP, preclinical PK assessment. A linear model (1/X^2 weighting) fit the calibrators across the 1.00 to 500 ng/mL range, with a correlation coefficient (R) of […]. The lower limit of quantification (LLOQ), defined as a peak area signal-to-noise ratio of 5 or greater verses a matric blank with IS, was 1.00 ng/mL.
§ To evaluate the plasma pharmacokinetics (PK) of dasatinib af t er two separate single oral gavage doses of solution, separated by a washout period, in normal C57BL/6 mice […]
vs 10wk) on the plasma PK of oral dasatinib us ing a nonlinear mixed effects (NLME) PK modeling […]
2. 1 In Vivo Pharmacokinetic (PK) Study
The total plasma PK of dasatinib in C57BL/6 mice (The Jackson Laboratory) was assessed after single oral gavages of 10 mg/kg of dasatinib free base equivalents. Dasatinib (St. Jude Compound […]
sodium citrate buffer pH 3.1 for a final dasatinib concentration of 1 mg/mL for a 10 mL/kg gavage volume.
Mice were grouped by Vitamin D dietary sufficiency status and sex, and studied at 8 and 10 weeks of age. Survival saphenous and facial vein bleeding of mice was conducted using IACUC-approved […]
was sampled 3 times on the 2 separate occasions of dasatinib dosing. […] The tubes were then immediately centrifuged to plasma, and stored on dry ice for […]

Structure (SMILES): Cc1nc(Nc2ncc(C(=O)Nc3c(C)cccc3Cl)s2)cc(N2CCN(CCO)CC2)n1 [dasatinib]
- DV (dasatinib plasma concentration) (GROUP:VD3 Suf, SEX:M, OCC 2, time 0.25): 101.99 and 116.5
- DV (dasatinib plasma concentration) (GROUP:VD3 Suf, SEX:M, OCC 2, time 0.5): 207.19 and 212.25
- DV (dasatinib plasma concentration) (GROUP:VD3 Suf, SEX:M, OCC 2, time 2): 297.27 and 320.75
- DV (dasatinib plasma concentration) (GROUP:VD3 Suf, SEX:M, OCC 2, time 8): 10.361 and 16.431
- DV (dasatinib plasma concentration) (GROUP:VD3 Suf, SEX:M, OCC 2, time 24): 3.3895 and 3.3706
- CL/F (Base Model, 10 mg/kg oral gavage): 112 mL/min/kg
- CL/F (Final Model): 119 mL/min/kg
- concentration at 0.5 h (female, GROUP:VD3 Def, SEX:F, OCC 1, time 0.5): 149 ng/mL
- concentration at 1 h (female, GROUP:VD3 Def, SEX:F, OCC 1, time 1): 278 ng/mL
- concentration at 2 h (female, GROUP:VD3 Def, SEX:F, OCC 1, time 2): 435 ng/mL
- concentration at 8 h (female, GROUP:VD3 Def, SEX:F, OCC 1, time 8): 25.2 ng/mL
- concentration at 16 h (female, GROUP:VD3 Def, SEX:F, OCC 1, time 16): 4.02 ng/mL
- concentration at […] (female, GROUP:VD3 Def, SEX:F, OCC 2, time 0.125): 49 ng/mL
- concentration at […] (female, GROUP:VD3 Def, SEX:F, OCC 2, time 0.25): 146 ng/mL
- concentration at 0.5 h (female, GROUP:VD3 Def, SEX:F, OCC 2, time 0.5): 188 ng/mL
- concentration at 16 h (female, GROUP:VD3 Def, SEX:F, OCC 2, time 16): 4.35 ng/mL
- concentration at […] (female, GROUP:VD3 Suf, SEX:F, OCC 1, time 0.25): 167 ng/mL
- concentration at 0.5 h (female, GROUP:VD3 Suf, SEX:F, OCC 1, time 0.5): 231 ng/mL
- concentration at 2 h (female, GROUP:VD3 Suf, SEX:F, OCC 1, time 2): 405 ng/mL
- concentration at 4 h (female, GROUP:VD3 Suf, SEX:F, OCC 1, time 4): 54.1 ng/mL
- concentration at 8 h (female, GROUP:VD3 Suf, SEX:F, OCC 1, time 8): 22 ng/mL
- concentration at 16 h (female, GROUP:VD3 Suf, SEX:F, OCC 1, time 16): 2.06 ng/mL
- concentration at 0.5 h (female, GROUP:VD3 Suf, SEX:F, OCC 2, time 0.5): 137 ng/mL
- concentration at 1 h (female, GROUP:VD3 Suf, SEX:F, OCC 2, time 1): > 500 ng/mL
- concentration at 2 h (female, GROUP:VD3 Suf, SEX:F, OCC 2, time 2): 441 ng/mL
- concentration at 4 h (female, GROUP:VD3 Suf, SEX:F, OCC 2, time 4): 64 ng/mL
- concentration at 16 h (female, GROUP:VD3 Suf, SEX:F, OCC 2, time 16): 8.15 ng/mL
- concentration at […] (male, GROUP:VD3 Def, SEX:M, OCC 1, time 0.25): 145 ng/mL
- concentration at 0.5 h (male, GROUP:VD3 Def, SEX:M, OCC 1, time 0.5): 194 ng/mL
- concentration at 2 h (male, GROUP:VD3 Def, SEX:M, OCC 1, time 2): > 500 ng/mL
- concentration at 4 h (male, GROUP:VD3 Def, SEX:M, OCC 1, time 4): 87.8 ng/mL
- concentration at 8 h (male, GROUP:VD3 Def, SEX:M, OCC 1, time 8): 16.2 ng/mL
- concentration at 24 h (male, GROUP:VD3 Def, SEX:M, OCC 1, time 24): 6.39 ng/mL
- concentration at 0.5 h (male, GROUP:VD3 Def, SEX:M, OCC 2, time 0.5): 178 ng/mL
- concentration at 1 h (male, GROUP:VD3 Def, SEX:M, OCC 2, time 1): > 500 ng/mL
- concentration at 2 h (male, GROUP:VD3 Def, SEX:M, OCC 2, time 2): 287 ng/mL
- concentration at 4 h (male, GROUP:VD3 Def, SEX:M, OCC 2, time 4): 83.2 ng/mL
- concentration at 8 h (male, GROUP:VD3 Def, SEX:M, OCC 2, time 8): 15.5 ng/mL
- concentration at 16 h (male, GROUP:VD3 Def, SEX:M, OCC 2, time 16): 11.1 ng/mL
- concentration at […] (male, GROUP:VD3 Suf, SEX:M, OCC 1, time 0.125): 49.4 ng/mL
- concentration at […] (male, GROUP:VD3 Suf, SEX:M, OCC 1, time 0.25): 110 ng/mL
- concentration at 2 h (male, GROUP:VD3 Suf, SEX:M, OCC 1, time 2): 350 ng/mL
- concentration at 4 h (male, GROUP:VD3 Suf, SEX:M, OCC 1, time 4): 147 ng/mL
- concentration at […] (male, GROUP:VD3 Suf, SEX:M, OCC 2, time 0.25): 107 ng/mL
- concentration at 0.5 h (male, GROUP:VD3 Suf, SEX:M, OCC 2, time 0.5): 316 ng/mL
- concentration at 1 h (male, GROUP:VD3 Suf, SEX:M, OCC 2, time 1): > 500 ng/mL
- concentration at 2 h (male, GROUP:VD3 Suf, SEX:M, OCC 2, time 2): 366 ng/mL
- concentration at 8 h (male, GROUP:VD3 Suf, SEX:M, OCC 2, time 8): 20.4 ng/mL
- concentration at 24 h (male, GROUP:VD3 Suf, SEX:M, OCC 2, time 24): 1.88 ng/mL

Source: article PMC8528301 (PLoS ONE, 2021)
